# Laboratory results from patent publication US9034921B2, “Diphenylmethane derivatives as SGLT2 inhibitors” (GREEN CROSS CORPORATION, priority 2011, dated 2015).
# Where a name gives a salt, the structure may show the parent alone.
# Target: human SGLT2 (Homo sapiens (Human), UniProt P31639)
# Assay: Inhibitory effects on human SGLT2 activities (14C-AMG uptake, sodium-dependent glucose transport assay)
# Format: cell-based
# Details: CHO cells stably expressing hSGLT2, 37° C., 2 h, single determinations
# Text: Test 1: Cloning and Cell Line Construction for Human SGLT2
# Human SGLT2 (hSGLT2) gene was amplified by PCR from cDNA-Human Adult Normal Tissue Kidney (Invitrogen). The hSGLT2 sequence was cloned into pcDNA3.1(+) for mammalian expression and stably transfected into chinese hamster ovary (CHO) cells. SGLT2-expressing clones were selected based on resistance to G418 antibiotic (Geneticin) and activity in the ^14C-α-methyl-D-glucopyranoside (^14C-AMG) uptake assay.
# Test 2: Inhibitory Effects on Human SGLT2 Activities
# For sodium-dependent glucose transport assay, cells expressing hSGLT2 were seeded into a 96-well culture plate at a density of 5×10^4 cells/well in RPMI medium 1640 containing 10% fetal bovine serum. The cells were used 1 day after plating. They were incubated in pretreatment buffer (10 mM HEPES, 5 mM Tris, 140 mM choline chloride, 2 mM KCl, 1 mM CaCl2, and 1 mM MgCl2, pH 7.4) at 37° C. for 10 min. They were then incubated in uptake buffer (10 mM HEPES, 5 mM Tris, 140 mM NaCl, 2 mM KCl, 1 mM CaCl2, 1 mM MgCl2, and 1 mM ^14C-nonlabeled AMG pH 7.4) containing ^14C-labeled AMG (8 μM) and the inventive compound or dimethyl sulfoxide (DMSO) vehicle at 37° C. for 2 h. Cells were washed twice with washing buffer (pretreatment buffer containing 10 mM AMG at room temperature) and then the radioactivity was measured using a liquid scintillation counter. IC50 was determined by nonlinear regression analysis using GraphPad PRISM [Katsuno, K. et al. J. Pharmacol. Exp. Ther. 2007, 320, 323-330; Han, S. et al. Diabetes, 2008, 57, 1723-1729].
# Sequence of human SGLT2 (P31639 whole entry): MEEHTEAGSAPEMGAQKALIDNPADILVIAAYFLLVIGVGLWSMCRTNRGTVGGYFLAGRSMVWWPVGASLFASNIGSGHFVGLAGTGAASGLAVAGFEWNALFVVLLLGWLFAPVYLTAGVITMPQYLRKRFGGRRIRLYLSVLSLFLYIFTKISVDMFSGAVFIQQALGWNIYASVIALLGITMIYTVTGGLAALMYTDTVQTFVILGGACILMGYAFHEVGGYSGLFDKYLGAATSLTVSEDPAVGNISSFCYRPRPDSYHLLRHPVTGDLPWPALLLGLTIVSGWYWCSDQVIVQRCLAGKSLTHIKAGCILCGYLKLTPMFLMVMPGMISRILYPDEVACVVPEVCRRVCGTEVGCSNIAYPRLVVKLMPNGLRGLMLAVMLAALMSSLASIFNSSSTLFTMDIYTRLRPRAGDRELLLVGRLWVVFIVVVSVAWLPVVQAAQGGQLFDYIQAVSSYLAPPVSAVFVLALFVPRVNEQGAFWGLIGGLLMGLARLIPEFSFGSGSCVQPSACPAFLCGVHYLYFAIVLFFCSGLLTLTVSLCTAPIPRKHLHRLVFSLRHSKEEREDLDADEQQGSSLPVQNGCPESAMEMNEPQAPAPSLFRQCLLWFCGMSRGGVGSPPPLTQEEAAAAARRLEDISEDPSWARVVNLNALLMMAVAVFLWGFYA
row,SMILES,IC50 [nM]
1,"OC[C@H]1O[C@@H](c2cc(Cc3ccc(O)cc3)c(Cl)c3c2CCO3)[C@H](O)[C@@H](O)[C@@H]1O [Example E192, (2S,3R,4R,5S,6R)-2-(7-Chloro-6-(4-hydroxybenzyl)-2,3-dihydrobenzofuran-4-yl)-6-(hydroxymethyl)tetrahydro-2H-pyran-3,4,5-triol]",1.63
2,"OC[C@H]1O[C@@H](c2cc(Cc3ccc(OC4CCCC4)cc3)c(Cl)c3c2CCO3)[C@H](O)[C@@H](O)[C@@H]1O [Example E232, (2S,3R,4R,5S,6R)-2-(7-Chloro-6-(4-(cyclopentyloxy)benzyl)-2,3-dihydrobenzofuran-4-yl)-6-(hydroxymethyl)-tetrahydro-2H-pyran-3,4,5-triol]",1.6
3,"OC[C@H]1O[C@@H](c2cc(Cc3ccc(C4CC4)cc3)c(Cl)c3c2CCC3)[C@H](O)[C@@H](O)[C@@H]1O [Example E118, (2S,3R,4R,5S,6R)-2-(7-Chloro-6-(4-cyclopropylbenzyl)-2,3-dihydro-1H-inden-4-yl)-6-(hydroxymethyl)tetrahydro-2H-pyran-3,4,5-triol]",0.678
4,"CCOc1ccc(Cc2cc([C@@H]3O[C@H](SC)[C@@H](O)[C@H](O)[C@H]3O)c3c(c2Cl)CC(C)O3)cc1 (stereo partly drawn) [Example E145, (2S,3R,4R,5S,6R)-2-(4-Chloro-5-(4-ethoxybenzyl)-2-methyl-2,3-dihydrobenzofuran-7-yl)-6-(methylthio)tetrahydro-2H-pyran-3,4,5-triol]",0.685
5,"CC1Cc2c([C@@H]3O[C@H](CO)[C@@H](O)[C@H](O)[C@H]3O)cc(Cc3ccc(C4CC4)cc3)c(Cl)c2O1 (stereo partly drawn) [Example E138, (2S,3R,4R,5S,6R)-2-(7-Chloro-6-(4-cyclopropylbenzyl)-2-methyl-2,3-dihydrobenzofuran-4-yl)-6-(hydroxymethyl)tetrahydro-2H-pyran-3,4,5-triol]",1.13
6,"OC[C@H]1O[C@@H](c2cc(Cc3ccc(C(F)(F)F)cc3)c(Cl)c3c2CCO3)[C@H](O)[C@@H](O)[C@@H]1O [Example E124, (2S,3R,4R,5S,6R)-2-(7-Chloro-6-(4-(trifluoromethyl)benzyl)-2,3-dihydrobenzofuran-4-yl)-6-(hydroxymethyl)tetrahydro-2H-pyran-3,4,5-triol]",1.25
7,"CN(C)c1ccc(Cc2cc([C@@H]3O[C@H](CO)[C@@H](O)[C@H](O)[C@H]3O)c3c(c2Cl)CCO3)cc1 [Example E197, (2S,3R,4R,5S,6R)-2-(4-Chloro-5-(4-(dimethylamino)benzyl)-2,3-dihydrobenzofuran-7-yl)-6-(hydroxymethyl)tetrahydro-2H-pyran-3,4,5-triol]",3.22
8,"CC(C)c1ccc(Cc2cc([C@@H]3O[C@H](CO)[C@@H](O)[C@H](O)[C@H]3O)c3c(c2Cl)OCC3)cc1 [Example E181, (2S,3R,4R,5S,6R)-2-(7-Chloro-6-(4-isopropylbenzyl)-2,3-dihydrobenzofuran-4-yl)-6-(hydroxymethyl)tetrahydro-2H-pyran-3,4,5-triol]",0.794
9,"Cc1ccc([C@@H]2O[C@H](CO)[C@@H](O)[C@H](O)[C@H]2O)cc1Cc1ccc2c(c1)OCCO2 [Example E054, (2S,3R,4R,5S,6R)-2-(3-((2,3-Dihydrobenzo[b][1,4]dioxin-6-yl)methyl)-4-methylphenyl)-6-(hydroxymethyl)-tetrahydro-2H-pyran-3,4,5-triol]",2.02
10,"Cc1c(Cc2ccc(C3CC3)cc2)cc([C@@H]2O[C@H](CO)[C@@H](O)[C@H](O)[C@H]2O)c2c1OCC2 [Example E178, (2S,3R,4R,5S,6R)-2-(6-(4-Cyclopropylbenzyl)-7-methyl-2,3-dihydrobenzofuran-4-yl)-6-(hydroxymethyl)tetrahydro-2H-pyran-3,4,5-triol]",1.16
11,"N#CCc1ccc(Cc2cc([C@@H]3O[C@H](CO)[C@@H](O)[C@H](O)[C@H]3O)c3c(c2Cl)OCC3)cc1 [Example E203, 2-(4-((7-Chloro-4-((2S,3R,4R,5S,6R)-3,4,5-trihydroxy-6-(hydroxymethyl)tetrahydro-2H-pyran-2-yl)-2,3-dihydrobenzofuran-6-yl)methyl)phenyl)acetonitrile]",1.81
12,"CCOc1ccc(Cc2cc([C@@H]3O[C@H](CO)[C@@H](O)[C@H](O)[C@H]3O)cc(-c3ccsc3)c2C)cc1 [Example E089, (2S,3R,4R,5S,6R)-2-(3-(4-Ethoxybenzyl)-4-methyl-5-(thiophen-3-yl)phenyl)-6-(hydroxymethyl)-tetrahydro-2H-pyran-3,4,5-triol]",2.55
13,"C#CC(C)(O)c1ccc(Cc2cc([C@@H]3O[C@H](CO)[C@@H](O)[C@H](O)[C@H]3O)c3c(c2Cl)OCC3)cc1 (stereo partly drawn) [Example E179, (2S,3R,4R,5S,6R)-2-(7-Chloro-6-(4-(2-hydroxybut-3-yn-2-yl)benzyl)-2,3-dihydrobenzofuran-4-yl)-6-(hydroxymethyl)tetrahydro-2H-pyran-3,4,5-triol]",5.2
14,"COc1ccc(Cc2cc([C@@H]3O[C@H](CO)[C@@H](O)[C@H](O)[C@H]3O)c3oc(C)c(OC)c3c2Cl)cc1 [Example E201, (2S,3R,4R,5S,6R)-2-(4-Chloro-3-methoxy-5-(4-methoxybenzyl)-2-methylbenzofuran-7-yl)-6-(hydroxymethyl)tetrahydro-2H-pyran-3,4,5-triol]",49.4

# More lines, in order of falling IC50, values ahead:
row,IC50 [nM],SMILES
1,122,"CNCc1ccc(Cc2cc([C@@H]3O[C@H](CO)[C@@H](O)[C@H](O)[C@H]3O)c3c(c2Cl)OCC3)cc1 [Example E183, (2S,3R,4R,5S,6R)-2-(7-Chloro-6-(4-((methylamino)methyl)benzyl)-2,3-dihydrobenzofuran-4-yl)-6-(hydroxymethyl)tetrahydro-2H-pyran-3,4,5-triol trifluoro acetic acid salt]"
2,8.65,"CO[C@H]1O[C@@H](c2ccc(Cl)c(Cc3ccc4c(c3)OCCO4)c2)[C@H](O)[C@@H](O)[C@@H]1O [Example E092, (2S,3R,4R,5S,6S)-2-(4-Chloro-3-((2,3-dihydrobenzo[b][1,4]dioxin-6-yl)methyl)phenyl)-6-methoxy-tetrahydro-2H-pyran-3,4,5-triol]"
3,7.06,"C=CCOc1cc(Cl)c(Cc2ccc(OC)cc2)cc1[C@@H]1O[C@H](OC)[C@@H](O)[C@H](O)[C@H]1O [Example E115, (2S,3R,4R,5S,6S)-2-(2-(Allyloxy)-4-chloro-5-(4-methoxybenzyl)phenyl)-6-methoxytetrahydro-2H-pyran-3,4,5-triol]"
4,1.57,"OC[C@H]1O[C@@H](c2cc(Cc3ccc4c(c3)OCCO4)c(Cl)c3c2OCC3)[C@H](O)[C@@H](O)[C@@H]1O [Example E191, (2S,3R,4R,5S,6R)-2-(4-Chloro-5-((2,3-dihydrobenzo[b][1,4]dioxin-6-yl)methyl)-2,3-dihydrobenzofuran-7-yl)-6-(hydroxymethyl)tetrahydro-2H-pyran-3,4,5-triol]"
5,1.15,"COc1ccc(Cc2cc([C@@H]3O[C@H](CO)[C@@H](O)[C@H](O)[C@H]3O)c3c(c2Cl)OCO3)cc1 [Example E161, (2S,3R,4R,5S,6R)-2-(7-Chloro-6-(4-methoxybenzyl)benzo[d][1,3]dioxol-4-yl)-6-(hydroxymethyl)tetrahydro-2H-pyran-3,4,5-triol]"
6,1.11,"CC1Cc2c(Cl)c(Cc3ccc(C4CC4)cc3)cc([C@@H]3O[C@H](CO)[C@@H](O)[C@H](O)[C@H]3O)c2O1 (stereo partly drawn) [Example E133, (2S,3R,4R,5S,6R)-2-(4-Chloro-5-(4-cyclopropylbenzyl)-2-methyl-2,3-dihydrobenzofuran-7-yl)-6-(hydroxymethyl)tetrahydro-2H-pyran-3,4,5-triol]"
7,0.976,"CCc1ccc(Cc2cc([C@@H]3O[C@H](CO)[C@@H](O)[C@H](O)[C@H]3O)c3c(c2Cl)CC(C)S3)cc1 (stereo partly drawn) [Example E144, (2S,3R,4R,5S,6R)-2-(4-Chloro-5-(4-ethylbenzyl)-2-methyl-2,3-dihydrobenzo[b]thiophen-7-yl)-6-(hydroxymethyl)tetrahydro-2H-pyran-3,4,5-triol]"
8,0.833,"CCOc1ccc(Cc2cc([C@@H]3O[C@H](CO)[C@@H](O)[C@H](O)[C@H]3O)c3c(c2Cl)CCO3)cc1 [Example E022, (2S,3R,4R,5S,6R)-2-(4-Chloro-5-(4-ethoxybenzyl)-2,3-dihydrobenzofuran-7-yl)-6-(hydroxymethyl)tetrahydro-2H-pyran-3,4,5-triol]"
9,0.793,"COc1ccc(Cc2cc([C@@H]3O[C@H](CO)[C@@H](O)[C@H](O)[C@H]3O)c3c(c2C)CCC3)cc1 [Example E007, (2R,3S,4R,5R,6S)-2-(Hydroxymethyl)-6-(6-(4-methoxybenzyl)-7-methyl-2,3-dihydro-1H-inden-4-yl)tetrahydro-2H-pyran-3,4,5-triol]"
10,0.504,"C=CCOc1cc(Cl)c(Cc2ccc(OC)cc2)cc1[C@@H]1O[C@H](SC)[C@@H](O)[C@H](O)[C@H]1O [Example E110, (2S,3R,4R,5S,6R)-2-(2-(Allyloxy)-4-chloro-5-(4-methoxybenzyl)phenyl)-6-(methylthio)tetrahydro-2H-pyran-3,4,5-triol]"
